Reference: US8318731B2, “Pyrrolopyrimidines” (Janssen Pharmaceutica NV, priority 2007, dated 2012)

Experiments:
PC3 = assay: Cellular proliferation assay (Alamar blue), PC3; format: cell-based; conditions: Homo sapiens, PC-3, PC-3 cells; 10% FCS; 72 h with compound; Alamar blue 24 h; read-out: pIC50 PC-3 (converted)
Procedure: (§1) Cellular proliferation of these compounds was tested on a panel of different cell lines in the presence of 10% FCS serum (37° C. and 5% (v/v) CO2). In a first step these cells were seeded and incubated for 24 hours in the absence of compound. In the second step the cells were incubated for 72 hours with the compounds to be tested for 72 hours. The viable cell number was finally assessed in a standard Alamar blue cell viability assay.
(§2) The viable cell number was assessed by incubation for either 4 h (HCT-116, H1299) 6 h (U87-MG) or 24 h (A2780, PC3, MDA-MB-231) with Alamar blue (Resazurin 9 μg/ml, K-Ferrocyanide 90 μM, K-Ferricyanide 90 μM) and the converted fluorescent product was quantified on a fluorescent plate readed (544 nm/590 nm). Effect of the compounds is calculated as of on control cells.

U87-MG = assay: Cellular proliferation assay (Alamar blue), U87-MG; format: cell-based; conditions: Homo sapiens, U-87 MG; U87-MG cells; 10% FCS; 72 h with compound; Alamar blue 6 h; read-out: pIC50 U87MG (converted)
Procedure: as §1, §2

HCT-116 = assay: Cellular proliferation assay (Alamar blue), HCT-116; format: cell-based; conditions: Homo sapiens; HCT-116 cells; 10% FCS; 72 h with compound; Alamar blue 4 h; read-out: pIC50 HCT-116 (converted)
Procedure: as §1, §2

MDA-MB-231 = assay: Cellular proliferation assay (Alamar blue), MDA-MB-231; format: cell-based; conditions: Homo sapiens, MDA-MB-231, MDA-MB-231 cells; 10% FCS; 72 h with compound; Alamar blue 24 h; read-out: pIC50 MDA/MB231 (converted)
Procedure: as §1, §2

A2780 = assay: Cellular proliferation assay (Alamar blue), A2780; format: cell-based; conditions: Homo sapiens, A2780, A2780 cells; 10% FCS; 72 h with compound; Alamar blue 24 h; read-out: pIC50 A2780 (converted)
Procedure: as §1, §2

H1299 = assay: Cellular proliferation assay (Alamar blue), H1299; format: cell-based; conditions: Homo sapiens, NCI-H1299, H1299 cells; 10% FCS; 72 h with compound; Alamar blue 4 h; read-out: pIC50 H1299 (converted)
Procedure: as §1, §2

PLK4 (h) = target: T1, PLK4 (h) (Homo sapiens, UniProt O00444); assay: PLK-4 human kinase scintillation proximity assay (SPA); format: biochemical; conditions: 1 μM ATP, 60 minutes at r.t., read-out: PLK4 pIC50 (converted)
T1 sequence (O00444 1-970): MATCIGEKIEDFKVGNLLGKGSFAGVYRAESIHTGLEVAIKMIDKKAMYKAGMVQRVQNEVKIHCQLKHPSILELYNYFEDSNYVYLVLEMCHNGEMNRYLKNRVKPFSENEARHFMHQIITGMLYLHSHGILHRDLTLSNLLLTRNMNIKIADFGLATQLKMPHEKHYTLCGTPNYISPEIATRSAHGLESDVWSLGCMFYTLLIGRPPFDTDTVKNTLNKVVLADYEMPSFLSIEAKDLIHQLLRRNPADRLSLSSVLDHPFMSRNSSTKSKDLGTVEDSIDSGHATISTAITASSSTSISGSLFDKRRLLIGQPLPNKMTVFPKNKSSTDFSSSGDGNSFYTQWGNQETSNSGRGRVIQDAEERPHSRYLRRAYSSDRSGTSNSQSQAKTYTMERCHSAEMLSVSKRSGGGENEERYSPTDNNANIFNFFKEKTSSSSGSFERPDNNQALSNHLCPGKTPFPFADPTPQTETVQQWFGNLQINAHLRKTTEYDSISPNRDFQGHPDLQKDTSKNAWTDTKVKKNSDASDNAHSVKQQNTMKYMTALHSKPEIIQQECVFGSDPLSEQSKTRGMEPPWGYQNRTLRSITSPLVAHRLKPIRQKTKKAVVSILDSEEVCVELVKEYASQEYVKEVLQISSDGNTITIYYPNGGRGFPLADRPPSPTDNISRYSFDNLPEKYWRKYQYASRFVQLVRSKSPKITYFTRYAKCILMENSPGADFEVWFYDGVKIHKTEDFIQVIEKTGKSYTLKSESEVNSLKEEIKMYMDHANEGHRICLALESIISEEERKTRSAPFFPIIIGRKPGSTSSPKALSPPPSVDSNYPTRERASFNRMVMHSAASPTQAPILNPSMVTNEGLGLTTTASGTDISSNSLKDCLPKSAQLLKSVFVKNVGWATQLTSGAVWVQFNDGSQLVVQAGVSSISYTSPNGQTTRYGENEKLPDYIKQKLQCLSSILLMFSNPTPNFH
Procedure: The in vitro inhibition of a panel of kinases was assessed using either the scintillation proximity assay (SPA) as described by Cook, N. D. et al., Advances in Experimental Medicine and Biology (1991), 36; p. 525-528.
In the SPA technology the activity of the kinase of interest is measured using an appropriate biotinylated substrate that is incubated with the aforementioned kinase protein in the presence of (^33P) radiolabeled ATP. (^33P) Phosphorylation of the substrate is subsequently measured through binding of the phosphorylated substrate to streptavidine coated beads that are based on the scintillant poly(vinyl toluene) (PVT-Beads). The scintillation intensity is detected by imaging on Leadseeker.
All kinases are pre-diluted to a 10× working concentration prior to addition into the assay. The composition of the dilution buffer for each kinase is detailed below.
In a final reaction volume of 30 μl, PLK4 (h) (19 μg/ml) is incubated with 50 mM Hepes pH 8.0, 10 mM MgCl2, 50 mM NaCl, 1 mM NaF, 1 mM DTT, 10 μM of peptide Biotin-RPRGQRDSSYYWE-OH, 1 μM ATP and 2 nM [γ-^33P-ATP] (6.0 μCi/ml). After incubation of 60 minutes at r.t., the reaction is stopped by addition of 40 μL of stop solution containing 8.7 mM EDTA, BSA 0.17%, 0.17% Triton X-100, 1.7 mg/ml SPA beads (GE-healthcare). The plate is centrifuged and read for Scintillation imaging on Leadseeker.

SMILES | IC50 (PC3) | IC50 (U87-MG) | IC50 (HCT-116) | IC50 (MDA-MB-231) | IC50 (A2780) | IC50 (H1299) | IC50 (PLK4 (h))
CN1CCCN(C)C(=O)COc2cc(ccc2NC(=O)NC2CCCCC2)Nc2ncnc3[nH]cc(c23)C1 [Compound 13] | > 10 µM | 3.98 µM | 2 µM | > 10 µM | 1 µM | 3.98 µM | 0.0251 µM
COc1cc2cc(c1OC)CN(C(C)C)CC(=O)N(C)CCCc1c[nH]c3ncnc(c13)N2 [Compound 123] | > 10 µM | > 10 µM | > 10 µM | > 10 µM | > 10 µM | > 10 µM | > 10 µM
COc1ccc2cc1CN(C)CCC(=O)N(C)CCCc1c[nH]c3ncnc(c13)N2 [Compound 4] | > 10 µM | > 10 µM | > 10 µM | > 10 µM | > 10 µM | > 10 µM | > 10 µM
CN1CCN(C)C(=O)CCCCOc2cccc(c2)Nc2ncnc3[nH]cc(c23)C1 [Compound 2] | > 10 µM | > 10 µM | > 10 µM | > 10 µM | > 10 µM | > 10 µM | 3.16 µM
COCCN1CC(=O)N(C)CCCc2c[nH]c3ncnc(c23)Nc2ccc(OC)c(c2)C1 [Compound 36] | > 10 µM | > 10 µM | > 10 µM | > 10 µM | > 10 µM | > 10 µM | > 10 µM
CN1CCN(C)C(=O)CCc2cc(ccc2N2CCOCC2)Nc2ncnc3[nH]cc(c23)C1 [Compound 45] | > 10 µM | > 10 µM | > 10 µM | > 10 µM | > 10 µM | > 10 µM | 3.16 µM
O=C1CCCCOc2cc(cc(C(F)(F)F)c2)Nc2ncnc3[nH]cc(c23)CN2CCN1CC2 [Compound 113] | > 10 µM | > 10 µM | > 10 µM | > 10 µM | > 10 µM | > 10 µM | > 10 µM
CN1CCCN(C)C(=O)COc2cc(ccc2OCCCN2CCOCC2)Nc2ncnc3[nH]cc(c23)C1 [Compound 137] | 3.16 µM | 1.58 µM | 1.26 µM | 3.16 µM | 0.794 µM | 3.98 µM | 0.398 µM
CCOCCOc1cc(OC)c2cc1OCC(=O)N(C)CCCN(C)Cc1c[nH]c3ncnc(c13)N2 [Compound 151] | > 10 µM | > 10 µM | > 10 µM | > 10 µM | > 10 µM | > 10 µM | –
COc1ccc2cc1OCC(=O)N(C)CCCNCc1c[nH]c3ncnc(c13)N2 [Compound 65] | > 10 µM | > 10 µM | > 10 µM | > 10 µM | > 10 µM | > 10 µM | 0.0794 µM
COc1cc2cc(c1OC)OCCCCC(=O)N1CCN(CC1)Cc1c[nH]c3ncnc(c13)N2 [Compound 111] | > 10 µM | > 10 µM | > 10 µM | > 10 µM | > 10 µM | > 10 µM | > 10 µM
CN1CCCN(C)C(=O)CCc2cccc(c2)Nc2ncnc3[nH]cc(c23)C1 [Compound 21] | 3.98 µM | 2 µM | 1.58 µM | 5.01 µM | 2 µM | 2 µM | 0.501 µM
COc1ccc2cc1OCC(=O)N(C)CCN(C)CCCc1c[nH]c3ncnc(c13)N2 [Compound 60] | > 10 µM | > 10 µM | > 10 µM | > 10 µM | > 10 µM | > 10 µM | 1 µM
CN1CCCN(C)C(=O)COc2cc(ccc2OCCOc2cc(C(F)(F)F)ccn2)Nc2ncnc3[nH]cc(c23)C1 [Compound 154] | 5.01 µM | 1 µM | 0.316 µM | 5.01 µM | 0.251 µM | 0.631 µM | –
COc1ccc2cc1OCCNC(=O)CN(C)Cc1c[nH]c3ncnc(c13)N2 [Compound 22] | 6.31 µM | 2.51 µM | 2 µM | 10 µM | 2 µM | 3.16 µM | 1.26 µM
CN1CCCN(C)C(=O)COc2cc(ccc2OCCOc2ccc(Cl)cc2)Nc2ncnc3[nH]cc(c23)C1 [Compound 134] | 6.31 µM | 3.16 µM | 0.126 µM | 5.01 µM | 0.0398 µM | 0.398 µM | 0.0794 µM
CN1CCCN(C)C(=O)COc2cc(ccc2OCCO)Nc2ncnc3[nH]cc(c23)C1 [Compound 80] | > 10 µM | > 10 µM | > 10 µM | > 10 µM | 6.31 µM | > 10 µM | 0.0631 µM
COc1ccc2cc1OCC(=O)N(C)CCCN(Cc1ccncc1)Cc1c[nH]c3ncnc(c13)N2 [Compound 62] | > 10 µM | > 10 µM | > 10 µM | > 10 µM | > 10 µM | > 10 µM | 0.631 µM
COCCN(CCOc1ccc2cc1OCC(=O)N(C)CCCN(C)Cc1c[nH]c3ncnc(c13)N2)C(C)C [Compound 140] | 1.58 µM | 1 µM | 1 µM | 1.58 µM | 1 µM | 3.16 µM | 0.158 µM
COc1ccc2cc1N(C)CC(=O)N(C)CCCN(C)Cc1c[nH]c3ncnc(c13)N2 [Compound 153] | 6.31 µM | 3.16 µM | 1.58 µM | 7.94 µM | 2 µM | 3.98 µM | –
CN1CCCN(C)C(=O)COc2cc(ccc2OCCNc2ncccn2)Nc2ncnc3[nH]cc(c23)C1 [Compound 159] | 7.94 µM | 3.16 µM | 2 µM | > 10 µM | 1.58 µM | 6.31 µM | –
Cc1nc2c3c(c[nH]c3n1)CN(C)CCCN(C)C(=O)COc1cc(ccc1Cl)N2 [Compound 148] | 5.01 µM | 3.16 µM | 5.01 µM | 10 µM | 1.58 µM | 3.98 µM | –
